Values of other authors, collected in US20140200276A1 (iCeutica, Inc., priority 2009, published 2014).

## COc1ccc2cc([C@H](C)C(=O)O)ccc2c1 [naproxen]
In vivo
  administered dose excreted in the feces: ≤ 3%
  excreted in the urine as 6-O-desmethyl naproxen: < 1%
total
  naproxen from any dose excreted in the urine: Approximately 95%
Unchanged naproxen
  excreted in the urine as naproxen: < 1%
